Biological target: DNA (cytosine-5)-methyltransferase 1 (Homo sapiens, UniProt P26358)
Test: DNMT1 Inhibition Assay
Experimental: The DNMT1 assays were carried to determine the IC50 with transition state analogs. The reaction (100 μL) containing 50 mM Tris-HCl pH 8.0, 100 mM KCl, 50 ug/mL BSA, 2 mM DTT, 1 μM freshly prepared [Me-3H]-SAM, 1 μM 26 bp hemimethylated DNA substrate and varying concentrations of each inhibitor ([…]), incubated at 37° C. with 100 nM DNMT1. The reaction fractions (50 μL) were taken at 2 hours. The methylated DNA was purified by using Micro Bio-spin P-30 columns (Bio-Rad). Purified samples were mixed with 10 mL of scintillation liquid (PerkinElmer), and counted for radioactivity in a Tricarb 2910 TR scintillation counter (PerkinElmer). The values obtained in the absence of DNMT1 in the reaction were used as controls. The assay data were analyzed using GraphPad Prism for IC50 calculations.

Chain of DNA (cytosine-5)-methyltransferase 1 (P26358 whole entry): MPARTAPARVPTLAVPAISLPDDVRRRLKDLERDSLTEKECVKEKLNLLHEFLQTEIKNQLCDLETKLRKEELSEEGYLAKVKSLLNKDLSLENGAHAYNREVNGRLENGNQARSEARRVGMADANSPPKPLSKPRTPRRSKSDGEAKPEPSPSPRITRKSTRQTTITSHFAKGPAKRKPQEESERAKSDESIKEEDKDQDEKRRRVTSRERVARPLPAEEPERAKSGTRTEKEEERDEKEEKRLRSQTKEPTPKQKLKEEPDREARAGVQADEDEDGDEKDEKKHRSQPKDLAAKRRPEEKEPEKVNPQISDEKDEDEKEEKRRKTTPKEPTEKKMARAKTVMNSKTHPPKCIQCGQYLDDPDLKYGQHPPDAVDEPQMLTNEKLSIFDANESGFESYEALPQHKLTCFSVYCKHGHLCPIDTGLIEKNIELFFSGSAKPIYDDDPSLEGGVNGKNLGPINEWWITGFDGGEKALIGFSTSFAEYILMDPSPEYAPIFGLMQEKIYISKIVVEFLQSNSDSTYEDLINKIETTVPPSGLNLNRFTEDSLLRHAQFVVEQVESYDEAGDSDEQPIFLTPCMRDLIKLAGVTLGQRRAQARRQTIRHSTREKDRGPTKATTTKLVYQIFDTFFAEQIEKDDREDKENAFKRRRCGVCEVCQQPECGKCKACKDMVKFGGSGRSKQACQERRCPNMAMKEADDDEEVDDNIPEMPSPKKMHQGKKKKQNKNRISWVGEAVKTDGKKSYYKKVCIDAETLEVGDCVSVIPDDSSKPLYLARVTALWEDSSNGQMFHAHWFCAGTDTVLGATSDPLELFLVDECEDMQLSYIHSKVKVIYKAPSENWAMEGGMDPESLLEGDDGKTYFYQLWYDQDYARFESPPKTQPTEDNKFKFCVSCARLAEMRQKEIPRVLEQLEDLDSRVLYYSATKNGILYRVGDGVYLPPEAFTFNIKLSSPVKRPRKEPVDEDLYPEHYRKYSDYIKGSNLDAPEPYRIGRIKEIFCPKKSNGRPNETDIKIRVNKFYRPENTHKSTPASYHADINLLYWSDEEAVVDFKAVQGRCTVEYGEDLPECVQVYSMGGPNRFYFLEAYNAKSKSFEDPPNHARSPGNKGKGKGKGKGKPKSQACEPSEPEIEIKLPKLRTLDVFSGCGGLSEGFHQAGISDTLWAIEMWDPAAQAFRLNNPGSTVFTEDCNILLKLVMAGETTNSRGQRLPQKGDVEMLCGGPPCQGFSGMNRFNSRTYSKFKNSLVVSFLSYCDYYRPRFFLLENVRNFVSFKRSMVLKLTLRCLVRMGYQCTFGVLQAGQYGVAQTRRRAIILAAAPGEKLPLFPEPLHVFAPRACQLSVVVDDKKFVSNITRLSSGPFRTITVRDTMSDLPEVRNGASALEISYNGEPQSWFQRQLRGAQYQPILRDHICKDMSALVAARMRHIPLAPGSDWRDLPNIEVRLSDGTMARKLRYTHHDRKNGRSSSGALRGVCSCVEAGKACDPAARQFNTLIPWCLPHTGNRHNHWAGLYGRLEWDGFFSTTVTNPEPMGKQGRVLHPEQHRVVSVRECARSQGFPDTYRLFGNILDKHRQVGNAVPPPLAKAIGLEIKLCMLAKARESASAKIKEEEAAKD

Row | IC50 [nM] | SMILES
1 | 1100 | Nc1nc(=O)n([C@H]2C[C@H](O)[C@@H](CO)O2)cc1CNC[C@H]1O[C@@H](n2cnc3c(N)ncnc32)[C@H](O)[C@@H]1O [US11518779, Compound 10]
2 | 3600 | Nc1nc(=O)n([C@H]2C[C@H](O)[C@@H](CO)O2)cc1CSCCC[C@H]1O[C@@H](n2cnc3c(N)ncnc32)[C@H](O)[C@@H]1O [US11518779, Compound 21]

Source: BindingDB's records for patent US11518779 (Victoria Link, 2022)
